Consider one compound from patent US20240316023A1, “BENEDIN, PIPERIDINE, 2-BENZHYDRYL-3-HYDROXY-N-METHYL-, HYDROCHLORIDE AND DERIVATIVES THEREOF FOR USE IN TREATING KLEINE-LEVIN SYNDROME” (priority 2021, published 2024).

The target in assay [1] is T1, mu (h) (MOP) (agonist radioligand) (Homo sapiens, UniProt P35372).
T1 construct: CEREP (Eurofins, France), contract panel
Nature of the assay: Radioligand binding panel (Eurofins/CEREP), mu opioid. The settings on record: 10^−5 M; % inhibition of control specific binding; read-out: % Inhibition at 10^−5M Benedin. As for the experimental part:
Benedin was tested at 10^−5 M, calculated as a % inhibition of control specific binding of a radioactively labeled ligand specific for each target.
This binding profile panel was broadly defined with roughly an equal number of selective, central and peripheral therapeutically relevant targets, including native animal tissues, radioligands and specific enzymes involved in cell cycle regulation in accordance with Eurofins Standard Operating Procedure.
For radioligand binding experiments, the half maximal inhibitory concentration (IC50) and the half maximal effective concentration (EC50) values were determined (via computer software) by nonlinear regression analysis of the competition curves using Hill equation curve fitting. The inhibition constants (Ki) were calculated using the Cheng-Prusoff equation (Ki=IC50/(1+(L/KD)), where L is the concentration of radioligand in the assay, and KD is the affinity of the radioligand for the receptor.^60
The results are expressed as a % control specific binding ([measured specific binding/control specific binding]×100) and as a % inhibition of control specific binding (100−[(measured specific binding/control specific binding)×100] obtained in the presence of the test compounds. […]

For another assay, the system named is Mice, C57BL/6J, male. Kind of assay: Novel object recognition (NOR) test, long-term memory. Type of assay: in vivo. To be noted: for DI Discrimination Index = 100 × (N − F)/(N + F) / N − F Exploration time novel − familiar object: choice trial 72 h post treatment, mean, N = 16; for recognition of the familiar object, i.e. memory: 3-days interval. As to the method:
Long-term episodic memory was tested in the NOR test, using a 3-days interval between the acquisition session (called sample trial) and the retention session (called choice trial). This method allows to detect an improvement of memory in the natural forgetting condition:
The test was carried out in circular boxes (30 cm diameter, 40 cm high). The objects to be discriminated (L≈1≈h≈3-4 cm) differed in both color and shape and were referred as yellow duck and blue lego. They were fixed with a magnet to the floor of the boxes at 5 cm of the wall, 20 cm distant. Apparently, they have no natural significance for mice and they have never been associated with a reinforcement. In order to rule out the possibility of scent traces left on the objects and therefore the dependency of the recognition capacity of mice on the olfactory cue, the objects and the ground of the box were washed with an odorless disinfectant (Sanicid® diluted in water) and dried between each trial. A camcorder was fixed to the ceiling above the box to record the animals' activity. The experiment was analyzed blindly at a later time.
On the week before the test, animals were handled by the experimenter in charge of the experiment in order to be not stressed at the time of testing. For this purpose, the experimenter placed a small amount of litter, and then the mouse on its hand. […] The NOR test was completed over five days (see FIG. 1): • Day 1: Habituation trial. Animals were individually placed for a 15-min free exploration session in empty open boxes. • Day 2. Treatment administration and sample trial. […] They were individually placed 30 min after in the apparatus for a 6-min session with two identical objects (Duck, 50% of animals or Lego, 50% of animals). • […]. […]. The mice were individually placed for a 6-min session in the apparatus with two objects (Duck and Lego), one of the objects presented in sample trials (termed as familiar objects) and a novel object (Lego, 50% of animals or Duck, 50% of animals).
The sample and choice trials were recorded with the camera located above the apparatus. The time spent by mice in exploring the objects was measured during the sample trial and the choice trial.
Exploration of an object was defined as follows: directing the nose to the object at a distance≤2 cm and/or touching it with the nose or forelimbs: turning around or biting the object, or sitting on the object were not considered as exploratory behavior.
Data recorded: • L=exploration time of the left object in the sample trial. • R=exploration time of the right object in the sample trial. • N=exploration time of the new object in the choice trial. • F=exploration time of the familiar object in the choice trial. Object recognition task indices include the following parameters: • Exploration indices: • ST=L+R=exploration time (left object+right object) in the sample trial. • CT=N+F=exploration time (new object+familiar object) in the choice trial. • Two memory indices: • N−F=difference of exploration time between the new object and the familiar object in the choice trial.
Statistical analyses: • Read-outs: DI, N−F, ST, CT, N, F • Unpaired Student's t test: Donep 2 group vs. Control group. • One-way ANOVA, Dunnett test: • Benedin groups vs. Control group. • Benedin groups vs. Donep 2 group. • Read-outs: DI and N−F, for all groups, paired Student's t test, difference vs. 0. • Body weight: one-way ANOVA.

A word on the inhibition: it is the relative decrease from the control value, in per cent.

T1 sequence (P35372 whole entry): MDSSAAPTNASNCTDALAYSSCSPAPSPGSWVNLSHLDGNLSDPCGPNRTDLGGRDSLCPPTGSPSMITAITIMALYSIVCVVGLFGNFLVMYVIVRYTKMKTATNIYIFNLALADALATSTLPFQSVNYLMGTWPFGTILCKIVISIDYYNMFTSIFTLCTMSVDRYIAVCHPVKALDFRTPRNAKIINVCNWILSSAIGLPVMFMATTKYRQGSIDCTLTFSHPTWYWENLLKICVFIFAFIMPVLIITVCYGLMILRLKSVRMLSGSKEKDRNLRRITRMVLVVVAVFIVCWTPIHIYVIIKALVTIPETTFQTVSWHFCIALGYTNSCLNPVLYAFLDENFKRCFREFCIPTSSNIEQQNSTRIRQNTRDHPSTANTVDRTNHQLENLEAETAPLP

As to `CN1CCCC(O)C1C(c1ccccc1)c1ccccc1` (stereo not shown) [Benedin, 2-benzhydryl-3-hydroxy-N-methyl-piperidine], the inhibition at 10 µM in assay [1] is 24.4%. The “DI Discrimination Index = 100 × (N − F)/(N + F)” value in the assay on Mice, C57BL/6J, male (Benedin 0.1 mg/kg i.p. 30 min before sample trial) is recorded as “not significantly different from 0”; in the assay with Mice, C57BL/6J, male (Benedin 0.1 mg/kg i.p. 30 min before sample trial, listed as NLS-11), 12.0; in the assay on Mice, C57BL/6J, male (Benedin 0.5 mg/kg i.p. 30 min before sample trial), “significantly higher than 0”; in the assay with Mice, C57BL/6J, male (Benedin 0.5 mg/kg i.p. 30 min before sample trial, listed as NLS-11) it was 23.5; with Mice, C57BL/6J, male (Benedin 1 mg/kg i.p. 30 min before sample trial), “not significantly different from 0”; in the assay on Mice, C57BL/6J, male (Benedin 1 mg/kg i.p. 30 min before sample trial, listed as NLS-11) it was 13.0. For the same compound, the “recognition of the familiar object, i.e. memory” value is “not significant” in the assay with Mice, C57BL/6J, male (Benedin 0.1 mg/kg i.p.); “significant” with Mice, C57BL/6J, male (Benedin 0.5 mg/kg i.p.); “not significant” in the assay with Mice, C57BL/6J, male (Benedin 1 mg/kg i.p.). Further, the “N − F Exploration time novel − familiar object” value in the assay with Mice, C57BL/6J, male (Benedin 0.1 mg/kg i.p.) is recorded as “not significantly different from 0”; in the assay with Mice, C57BL/6J, male (Benedin 0.1 mg/kg i.p., listed as NLS-11), 3.4 s; with Mice, C57BL/6J, male (Benedin 0.5 mg/kg i.p.), “significantly higher than 0”; in the assay with Mice, C57BL/6J, male (Benedin 0.5 mg/kg i.p., listed as NLS-11), 6.2 s; with Mice, C57BL/6J, male (Benedin 1 mg/kg i.p.), “not significantly different from 0”; in the assay with Mice, C57BL/6J, male (Benedin 1 mg/kg i.p., listed as NLS-11), 4.0 s.
